The test system of assay [1] is DU4475 cells. Description: Cell-based assay: anti-proliferative activity, Cell Counting Kit-8, 72 hours (DU4475). As to conditions: Homo sapiens, DU-4475, 72 h. (In general: Tetrazolium dyes change colour on reduction, which living cells bring about.)
For a further assay, the system named is HT-1197 cells. Nature of the assay: Cell-based assay: anti-proliferative activity, Cell Counting Kit-8, 72 hours (HT-1197, negative control without MELK expression). The conditions noted are these: 72 hours. The method, boiled down: (§1)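 IC50 values come from CCK-8 growth measurements taken 72 hours post-treatment of plated cells with test compounds. Expression of MELK across the panel was assessed through immunoblot of unfractionated lysates.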

For the next assay, the target named is MELK (Homo sapiens, UniProt Q14680). Description: Kinase assay: MELK activity, phosphorylation of FITC-labeled histone H3 peptide measured by IMAP fluorescence polarization. Type of assay: biochemical. The conditions noted are these: read-out: IC50 (μM) (kinase assay). The method, boiled down:
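Substrate is FITC-labeled histone H3 peptide. Compounds come from a 12.5 mM DMSO stock, diluted so assay DMSO is 1%. The stop step adds threefold-volume progressive binding solution, followed by 0.5 h at room temperature and an FP read.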
In general terms: In fluorescence polarisation assays a small probe gives low polarisation when free and higher when bound to something large.

In a further assay the test system is T47D cells. Description: Cell-based assay: anti-proliferative activity, Cell Counting Kit-8, 72 hours (T47D). The method, boiled down: as §1
The test system of the next assay is A549 cells. Description: Cell-based assay: anti-proliferative activity, Cell Counting Kit-8, 72 hours (A549). As to conditions: 72 hours. The method, boiled down: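 Cell Counting Kit-8 read-out of A549 growth after 72 hours of inhibitor exposure, cells plated in 96-well format. Values reported as IC50.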
Assay [2] deals with DU4475 cells. Nature of the assay: Cell-based assay: anti-proliferative activity, Cell Counting Kit-8, 72 hours (DU4475).
The mark [3] stands for this setting: Homo sapiens, HT1197, 72 h, HT1197 cells (negative control, no MELK expression).
Where [4] appears, read: Homo sapiens, HT1197, 72 h, HT1197 cells (negative control).

SMILES strings stand for the structures. Where a name gives a salt, the structure may show the parent alone. Read-outs that look alike come from different tables or passages of the source.

Among the data in patent US9120749B2, “Quinoline derivatives and MELK inhibitors containing the same” (ONCOTHERAPY SCIENCE, INC., priority 2010, dated 2015) are IC50 values, retold here.

MELK, sequence (Q14680 whole entry, looked up): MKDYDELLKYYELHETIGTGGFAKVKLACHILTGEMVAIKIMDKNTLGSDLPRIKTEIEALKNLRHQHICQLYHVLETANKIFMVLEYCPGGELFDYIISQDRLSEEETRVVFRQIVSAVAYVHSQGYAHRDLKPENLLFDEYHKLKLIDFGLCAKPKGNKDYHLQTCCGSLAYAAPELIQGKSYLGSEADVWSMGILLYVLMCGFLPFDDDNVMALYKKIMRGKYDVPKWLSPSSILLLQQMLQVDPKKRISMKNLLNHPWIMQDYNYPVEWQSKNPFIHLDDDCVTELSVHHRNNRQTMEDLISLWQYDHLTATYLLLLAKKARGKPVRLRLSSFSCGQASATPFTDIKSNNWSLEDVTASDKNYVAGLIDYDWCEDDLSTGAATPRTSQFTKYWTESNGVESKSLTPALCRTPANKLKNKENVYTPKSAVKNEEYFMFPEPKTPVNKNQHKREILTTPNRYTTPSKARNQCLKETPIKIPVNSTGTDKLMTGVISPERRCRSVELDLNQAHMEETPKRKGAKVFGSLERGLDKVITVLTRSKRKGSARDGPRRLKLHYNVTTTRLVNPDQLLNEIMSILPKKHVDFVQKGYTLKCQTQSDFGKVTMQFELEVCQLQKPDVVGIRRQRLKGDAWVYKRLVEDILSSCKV

As usually defined, the IC50 is the concentration at which inhibition is half-maximal. On to `COc1cc(-c2ccc3ncc(C(C)=O)c(N[C@H]4CC[C@H](CN5CCC(O)C5)CC4)c3c2)cc(Cl)c1O` (stereo partly shown) [Example 749], for which the half-maximal inhibitory concentration (IC50) in the assay on DU4475 cells [1] stood at 0.21 µM; in the assay with HT-1197 cells (setting [3]) it was 6.4 µM; at MELK it was 0.0017 µM; in the assay with T47D cells (Homo sapiens, T47D, 72 h), 0.12 µM; with A549 cells (Homo sapiens, A549, 72 h), 0.22 µM.

As to `CC(=O)c1cnc2ccc(-c3cc(Cl)c(O)c(Cl)c3)cc2c1Nc1ccc(NCCN(C)C)nc1` [Example 758, 1-(6-(3,5-dichloro-4-hydroxyphenyl)-4-(6-(2-(dimethylamino)ethylamino)pyridin-3-ylamino)quinolin-3-yl)ethanone], the IC50 in the assay on DU4475 cells [1] turned out to be 0.055 µM; with HT-1197 cells (setting [3]), 24 µM; at MELK it was 0.0053 µM; with T47D cells (Homo sapiens, T47D, 72 h), 0.15 µM; in the assay with A549 cells (Homo sapiens, A549, 72 h), 0.22 µM.

As for `CC(=O)c1cnc2ccc(-c3cc(F)c(O)c(Cl)c3)cc2c1Nc1ccc(NCCN(C)C)nc1` [Example 762, 1-(6-(3-chloro-5-fluoro-4-hydroxyphenyl)-4-(6-(2-(dimethylamino)ethylamino)pyridin-3-ylamino)quinolin-3-yl)ethanone], the IC50 in the assay on DU4475 cells [1] was found to be 0.089 µM; in the assay with HT-1197 cells (setting [3]), 5.2 µM; on MELK, 0.014 µM; with T47D cells (Homo sapiens, T47D, 72 h) it was 0.12 µM; in the assay on A549 cells (Homo sapiens, A549, 72 h), 0.25 µM.

Turning to `CC(=O)c1cnc2ccc(-c3cc(Cl)c(O)c(Cl)c3)cc2c1N[C@H]1CC[C@H](CN2CCC(O)C2)CC1` (stereo partly shown) [Example 753], the IC50 in the assay with DU4475 cells [1] came to 0.057 µM; in the assay with HT-1197 cells (setting [3]), 71 µM; at MELK it was 0.0015 µM; with T47D cells (Homo sapiens, T47D, 72 h), 0.13 µM; in the assay with A549 cells (Homo sapiens, A549, 72 h), 0.37 µM.

Turning to `COc1cc(-c2ccc3ncc(C(=O)C4CC4)c(Nc4ccc(NCCN(C)C)nc4)c3c2)cc(Cl)c1O` [Example 746, (6-(3-chloro-4-hydroxy-5-methoxyphenyl)-4-(6-(2-(dimethylamino)ethylamino)pyridin-3-ylamino)quinolin-3-yl)(cyclopropyl)methanone], the concentration for half-maximal inhibition (IC50) with DU4475 cells [1] is 0.11 µM; in the assay on HT-1197 cells (setting [3]), 6.2 µM; on MELK, 0.0029 µM; in the assay with T47D cells (Homo sapiens, T47D, 72 h), 0.23 µM; in the assay on A549 cells (Homo sapiens, A549, 72 h), 0.18 µM.

For the compound `CN(C)CCNc1ccc(Nc2c(C(=O)C3CC3)cnc3ccc(-c4cc(Cl)c(O)c(Cl)c4)cc23)cn1` [Example 747, cyclopropyl(6-(3,5-dichloro-4-hydroxyphenyl)-4-(6-(2-(dimethylamino)ethylamino)pyridin-3-ylamino)quinolin-3-yl)methanone], the 50% inhibitory concentration (IC50) in the assay on DU4475 cells [1] is 0.043 µM; in the assay with HT-1197 cells (setting [3]), 2.6 µM; on MELK, 0.0043 µM; in the assay on T47D cells (Homo sapiens, T47D, 72 h), 0.16 µM; in the assay with A549 cells (Homo sapiens, A549, 72 h), 0.091 µM.

As for `CCC(=O)c1cnc2ccc(-c3cc(Cl)c(O)c(Cl)c3)cc2c1Nc1ccc(N2CCC(N)C2)nc1` (stereo not shown) [Example 761, 1-(4-(6-(3-aminopyrrolidin-1-yl)pyridin-3-ylamino)-6-(3,5-dichloro-4-hydroxyphenyl)quinolin-3-yl)propan-1-one], the half-inhibitory concentration (IC50) with DU4475 cells [1] worked out at 0.022 µM; in the assay with HT-1197 cells (setting [3]), 1.5 µM; on MELK, 0.0026 µM; in the assay with T47D cells (Homo sapiens, T47D, 72 h), 0.031 µM; with A549 cells (Homo sapiens, A549, 72 h), 0.053 µM.

Regarding `O=C(c1cnc2ccc(-c3cc(Cl)c(O)c(Cl)c3)cc2c1N1CCC(CCN2CCCC2)CC1)C1CC1` [Example 756, cyclopropyl(6-(3,5-dichloro-4-hydroxyphenyl)-4-(4-(2-(pyrrolidin-1-yl)ethyl)piperidin-1-yl)quinolin-3-yl)methanone], the IC50 is 0.27 µM in the assay on DU4475 cells [1]; 10 µM in the assay on HT-1197 cells (setting [3]); 0.5 µM with T47D cells (Homo sapiens, T47D, 72 h); 0.54 µM in the assay with A549 cells (Homo sapiens, A549, 72 h).

Turning to `NC1CCCN(c2ccc(Nc3c(C(=O)C4CC4)cnc4ccc(-c5cc(F)c(O)c(Cl)c5)cc34)cn2)C1` (stereo not shown) [Example 562, (4-(6-(3-aminopiperidin-1-yl)pyridin-3-ylamino)-6-(3-chloro-5-fluoro-4-hydroxyphenyl)quinolin-3-yl)(cyclopropyl)methanone hydrochloride], the IC50 was determined as 0.0089 µM with DU4475 cells [2] (hydrochloride); 0.19 µM in the assay with HT-1197 cells (HT1197 cells (negative control), hydrochloride); 0.0017 µM at MELK (hydrochloride); 0.0064 µM in the assay with T47D cells (72 hours, hydrochloride); 0.012 µM in the assay on A549 cells (hydrochloride).

Regarding `COc1cc(-c2ccc3ncc(C(=O)C4CC4)c(Nc4cnc(N5CCC(N)C5)nc4)c3c2)cc(Cl)c1O` (stereo not shown) [Example 582, (4-(2-(3-aminopyrrolidin-1-yl)pyrimidin-5-ylamino)-6-(3-chloro-4-hydroxy-5-methoxyphenyl)quinolin-3-yl)(cyclopropyl)methanone], the IC50 came to 0.064 µM in the assay on DU4475 cells [2] (Homo sapiens, DU-4475, 72 h); 1.1 µM in the assay with HT-1197 cells (setting [4]); 0.0031 µM on MELK; 0.052 µM in the assay with T47D cells (Homo sapiens, T47D, 72 h); 0.097 µM in the assay with A549 cells (Homo sapiens, A549, 72 h).

Regarding `O=C(c1cnc2ccc(-c3cc(Cl)c(O)c(Cl)c3)cc2c1N[C@H]1CC[C@H](CN2CCC(O)C2)CC1)C1CC1` (stereo partly drawn) [Example 600, cyclopropyl(6-(3,5-dichloro-4-hydroxyphenyl)-4-((trans-4-((3-hydroxypyrrolidin-1-yl)methyl)cyclohexyl)amino)quinolin-3-yl)methanone], the half-inhibitory concentration (IC50) in the assay with DU4475 cells [2] (Homo sapiens, DU-4475, 72 h) came out at 0.029 µM; in the assay with HT-1197 cells (setting [4]), 0.76 µM; on MELK, 0.00073 µM; with T47D cells (Homo sapiens, T47D, 72 h) it was 0.078 µM; with A549 cells (Homo sapiens, A549, 72 h) it was 0.12 µM.

With `CCCC(=O)c1cnc2ccc(-c3cc(F)c(O)c(Cl)c3)cc2c1Nc1ccc(N2CCNCC2)nc1` [Example 623, 1-{6-(3-Chloro-5-fluoro-4-hydroxyphenyl)-4-[6-(piperazin-1-yl)pyridin-3-ylamino]quinolin-3-yl}butan-1-one], the IC50 amounted to 0.1 µM in the assay with DU4475 cells [2] (Homo sapiens, DU-4475, 72 h); 2 µM with HT-1197 cells (setting [4]); 0.011 µM on MELK; 0.085 µM in the assay on T47D cells (Homo sapiens, T47D, 72 h); 0.2 µM with A549 cells (Homo sapiens, A549, 72 h).

`O=C(c1cnc2ccc(-c3cc(Cl)c(O)c(Cl)c3)cc2c1N[C@H]1C[C@H]2CC[C@@H](C1)N2)C1CC1` [Example 580, (4-((1R,3r,5S)-8-azabicyclo[3.2.1]octan-3-ylamino)-6-(3,5-dichloro-4-hydroxyphenyl)quinolin-3-yl)(cyclopropyl)methanone]: the IC50 was 0.12 µM in the assay on DU4475 cells [2] (Homo sapiens, DU-4475, 72 h); 4.1 µM in the assay with HT-1197 cells (setting [4]); 0.0045 µM at MELK; 0.25 µM in the assay with T47D cells (Homo sapiens, T47D, 72 h); 0.69 µM in the assay with A549 cells (Homo sapiens, A549, 72 h).

As to `O=C(c1cnc2ccc(-c3cc(Cl)c(O)c(Cl)c3)cc2c1N1CCC(C2CCNCC2)CC1)C1CC1` [Example 596, (4-(4,4′-bipiperidin-1-yl)-6-(3,5-dichloro-4-hydroxyphenyl)quinolin-3-yl)(cyclopropyl)methanone], the IC50 in the assay with DU4475 cells [2] (Homo sapiens, DU-4475, 72 h) stood at 0.14 µM; in the assay on HT-1197 cells (setting [4]), 5.1 µM; on MELK it was 0.0016 µM; in the assay on T47D cells (Homo sapiens, T47D, 72 h), 0.18 µM; with A549 cells (Homo sapiens, A549, 72 h) it was 1.5 µM.

Turning to `CCCC(=O)c1cnc2ccc(-c3cc(Cl)c(O)c(Cl)c3)cc2c1N[C@H]1CC[C@H](N)CC1` [Example 535, 1-(4-((trans-4-aminocyclohexyl)amino)-6-(3,5-dichloro-4-hydroxyphenyl)quinolin-3-yl)butan-1-one], the IC50 with DU4475 cells [2] (Homo sapiens, DU-4475, 72 h) came to 0.025 µM; in the assay with HT-1197 cells (setting [4]), 3.3 µM; on MELK, 0.0024 µM; in the assay on T47D cells (Homo sapiens, T47D, 72 h) it was 0.077 µM; in the assay on A549 cells (Homo sapiens, A549, 72 h), 0.24 µM.

As to `CCCC(=O)c1cnc2ccc(-c3cc(F)c(O)c(Cl)c3)cc2c1N[C@H]1CC[C@H](N)CC1` [Example 532, 1-(4-((trans-4-aminocyclohexyl)amino)-6-(3-chloro-5-fluoro-4-hydroxyphenyl)quinolin-3-yl)butan-1-one], the IC50 with DU4475 cells [2] (Homo sapiens, DU-4475, 72 h) came to 0.03 µM; with HT-1197 cells (setting [4]), 2.9 µM; at MELK it was 0.017 µM; in the assay on T47D cells (Homo sapiens, T47D, 72 h), 0.046 µM; in the assay on A549 cells (Homo sapiens, A549, 72 h), 0.49 µM.

Turning to `COc1cc(-c2ccc3ncc(C(=O)C4CC4)c(N4CCC(C5CCNCC5)CC4)c3c2)cc(Cl)c1O` [Example 595, (4-(4,4′-bipiperidin-1-yl)-6-(3-chloro-4-hydroxy-5-methoxyphenyl)quinolin-3-yl)(cyclopropyl)methanone], the IC50 worked out at 0.64 µM with DU4475 cells [2] (Homo sapiens, DU-4475, 72 h); 3.4 µM in the assay with HT-1197 cells (setting [4]); 0.0042 µM at MELK; 0.41 µM in the assay with T47D cells (Homo sapiens, T47D, 72 h); 0.57 µM in the assay on A549 cells (Homo sapiens, A549, 72 h).

Regarding `COc1cc(-c2ccc3ncc(C(C)=O)c(Nc4cnc(N5CCNCC5)nc4)c3c2)cc(Cl)c1O` [Example 616, 1-(6-(3-chloro-4-hydroxy-5-methoxyphenyl)-4-(2-(piperazin-1-yl)pyrimidin-5-ylamino)quinolin-3-yl)ethanone], the concentration for half-maximal inhibition (IC50) in the assay with DU4475 cells [2] (Homo sapiens, DU-4475, 72 h) amounted to 0.5 µM; in the assay with HT-1197 cells (setting [4]) it was 1.8 µM; at MELK, 0.0044 µM; in the assay on T47D cells (Homo sapiens, T47D, 72 h), 0.22 µM; with A549 cells (Homo sapiens, A549, 72 h), 0.66 µM.

As to `COC1CCN(C[C@H]2CC[C@H](Nc3c(C(=O)C4CC4)cnc4ccc(-c5cc(F)c(O)c(Cl)c5)cc34)CC2)C1` (stereo partly drawn) [Example 627, (6-(3-chloro-5-fluoro-4-hydroxyphenyl)-4-((trans-4-((3-methoxypyrrolidin-1-yl)methyl)cyclohexyl)amino)quinolin-3-yl)(cyclopropyl)methanone], the IC50 in the assay on DU4475 cells [2] (Homo sapiens, DU-4475, 72 h) was 0.083 µM; in the assay with HT-1197 cells (setting [4]), 0.55 µM; at MELK, 0.024 µM; with T47D cells (Homo sapiens, T47D, 72 h), 0.15 µM; in the assay on A549 cells (Homo sapiens, A549, 72 h) it was 0.11 µM.
